Reference: BindingDB's records for doi:10.1016/j.bmcl.2013.11.027 (Merck, 2013)

Target: Calcitonin gene-related peptide type 1 receptor/Receptor activity-modifying protein 1 (Homo sapiens, UniProt Q16602+O60894)
Assay: Displacement of [125I]-hCGRP from human CALCRL/RAMP1 expressed in HEK293 cell membranes

Sequence of Calcitonin gene-related peptide type 1 receptor/Receptor activity-modifying protein 1 (Q16602 whole entry): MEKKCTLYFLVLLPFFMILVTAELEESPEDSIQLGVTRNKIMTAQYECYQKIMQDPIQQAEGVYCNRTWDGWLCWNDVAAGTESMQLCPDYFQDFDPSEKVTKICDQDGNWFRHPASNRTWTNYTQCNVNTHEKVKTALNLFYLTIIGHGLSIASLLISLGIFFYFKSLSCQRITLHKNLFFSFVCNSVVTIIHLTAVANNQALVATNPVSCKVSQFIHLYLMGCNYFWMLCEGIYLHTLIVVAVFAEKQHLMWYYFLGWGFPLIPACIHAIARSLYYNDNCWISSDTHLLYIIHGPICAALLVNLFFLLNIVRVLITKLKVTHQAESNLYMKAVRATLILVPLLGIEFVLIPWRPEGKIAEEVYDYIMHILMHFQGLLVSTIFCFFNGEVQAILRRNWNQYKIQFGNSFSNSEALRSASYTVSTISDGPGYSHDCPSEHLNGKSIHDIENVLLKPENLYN
Sequence of Calcitonin gene-related peptide type 1 receptor/Receptor activity-modifying protein 1 (O60894 whole entry): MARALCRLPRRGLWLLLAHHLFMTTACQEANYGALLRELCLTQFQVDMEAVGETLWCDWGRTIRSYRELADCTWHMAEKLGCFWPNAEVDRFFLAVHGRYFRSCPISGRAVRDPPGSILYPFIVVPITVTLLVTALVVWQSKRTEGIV

Compound | Ki [nM]
Cc1ccc([C@@H](C)N(C/C=C/c2cnc3c(c2)C[C@@]2(C3)C(=O)Nc3ncccc32)C(=O)C(C)(C)C)cc1F [US8552023, 13] | 0.13
C[C@H](c1cc(F)cc(F)c1)N(C/C=C/c1cnc2c(c1)C[C@@]1(C2)C(=O)Nc2ncccc21)C(=O)C1(C(F)(F)F)CC1 [US8552023, 11] | 0.05
